{"source": "patent US20050142123A1", "about": "“Water-dispersible coenzyme q10 dry powders” (priority 2002, published 2005)", "origin": "cited, not measured here", "key": {"[1]": {"settings": "administered orally"}}, "data": [{"smiles": "COC1=C(OC)C(=O)C(CC=C(C)CCC=C(C)CCC=C(C)CCC=C(C)CCC=C(C)CCC=C(C)CCC=C(C)CCC=C(C)CCC=C(C)CCC=C(C)C)=C(C)C1=O", "note": "[Coenzyme Q-10, 6-Decaprenyl-2,3-dimethoxy-5-methyl-1,4-benzoquinone]", "values": [{"measurement": "bioavailability", "setting": "[1]", "result": "poor"}, {"measurement": "solubility in water", "result": "practically insoluble in water"}]}]}
